# Structures can show the parent of a compound that is named as a salt. Where two headings read alike, the source gives them in different places.
# Tests used:
# Assay type in all cases: physicochemical
# [1] = Slurry study of Form A of the mono-fumarate salt (XRPD of solids)
# Protocol: XRPD patterns of samples were collected using with an X-ray diffractometer (Bruker D8 advance). The system was equipped with LynxEye detector. Samples were scanned from 3 to 40° 2θ, at a step size 0.02° 2θ. The tube voltage and current were 40 KV and 40 mA, respectively.
# Slurry studies were conducted using 12 solvents at RT or 50° C. Solid samples were collected by filtration and analyzed by XRPD at a specific time.
# [2] = Solubility of mono-fumarate Form A estimated by solvent addition, visual assessment
# Source text: The solubility of Form A of the mono-fumarate salt of the compound of formula (I) was estimated using solvent addition method via visual assessment of the samples.
# [3] = Variable temperature study of Form B (cycling DSC, VT-XRPD)
# Protocol: XRPD patterns were collected with a PANalytical X'Pert PRO MPD diffractometer using an incident beam of Cu Kα radiation produced using a long, fine-focus source and a nickel filter. The diffractometer was configured using the symmetric Bragg-Brentano geometry. Data were collected and analyzed using Data Collector software v. 5.5. Prior to the analysis, a silicon specimen (NIST SRM 640e) was analyzed to verify the observed position of the Si 111 peak is consistent with the NIST-certified position. A specimen of the sample was packed in a nickel-coated copper well. Anti-scatter slits (SS) were used to minimize the background generated by air scattering. Soller slits for the incident and diffracted beams were used to minimize broadening from axial divergence. Diffraction patterns were collected using a scanning position-sensitive detector (X'Celerator) located 240 mm from the sample. The data acquisition parameters for each pattern are disclosed, including the divergence slit (DS) and the incident-beam SS.
# An Anton Paar TTK 450 stage was used to collect in-situ XRPD patterns as a function of temperature. The sample was heated with a resistance heater located directly under the sample holder, and the temperature was monitored with a platinum-100 resistance sensor located in the specimen holder. The heater was powered and controlled by an Anton Paar TCU 100 interfaced with Data Collector.
# DSC was performed using a Mettler-Toledo DSC3+ differential scanning calorimeter. A tau lag adjustment was performed with indium, tin, and zinc. The temperature and enthalpy were adjusted with octane, phenyl salicylate, indium, tin, and zinc. The adjustment was then verified with octane, phenyl salicylate, indium, tin, and zinc. The sample was placed into a hermetically sealed aluminum DSC pan, and the weight was accurately recorded. The pan was then inserted into the DSC cell. A weighed aluminum pan configured as the sample pan was placed on the reference side of the cell. The pan lid was pierced prior to sample analysis. Samples were analyzed from −30° C. to 250° C. @ 10°/min. The cyclic DSC method heated from −30° C. to 100° C., returned to −30° C., then heated to 250° C. at 10°/min.
# The thermal events associated with heating Form B, prepared according to Example 30, were further investigated by cycling DSC and variable temperature XRPD (FIG. 33 and FIG. 34, respectively). […] This phase transition was confirmed by VT-XRPD (see the diffraction pattern obtained at 100° C. in FIG. 34). During the first DSC cooling cycle, an exotherm at approximately 35° C. was observed. […] During the final DSC heating cycle, Form B first undergoes a phase transition to Material F at approximately 67° C. (endotherm). […] (endotherm) and immediately recrystallize as Form A (exotherm onset at approximately 164° C.). […] Determining which solid form was obtained after recrystallization was confirmed by VT-XRPD (the pattern obtained at approximately 175° C., FIG. 34).
# It is believed that this solid state behavior can be explained due to the relative stability of Form B and Material F is reversed in passing the transition temperature. For enantiotropic systems where hysteresis is minimal within the timescale measured, the transition temperature must lie between the onset temperatures of the observed endotherm and exotherm. Therefore, a transition temperature of ~49° C. was estimated from the thermogram with the use of the lever rule.
# The XRPD acquisition parameters used to collect the VT-XRPD data presented in Table 33 are as follows: X-ray Tube: Cu (1.54059 Å); voltage: 45 kV; amperage: 40 mA; scan range: 3.50-29.99° 2θ; step size: 0.017° 2θ; scan speed: 1.7° per minute; slit: DS: fixed slit ¼°; SS: fixed slit: ½°; revolution time: 0.0 null; and mode: reflection. The XRPD data collection times for the experiment are specified in Table 33.
# [4] = Physical stability of Form C at ambient conditions (XRPD)
# Protocol: The initial samples were then analyzed by XRPD. Thereafter, the vials were sealed and the samples were allowed to sit at ambient conditions for 9, 13, or 25 days (as designated in Table 35). The samples were then reanalyzed by XRPD.
structure (smiles),measurement,setting,value
"Cc1cc(NC(=O)[C@H](O)c2cc(F)cc(F)c2)ccc1-c1cnc(N)c(C(=O)NC(C)C)c1 [Form A of the mono-fumarate salt, (R)-2-amino-5-(4-(2-(3,5-difluorophenyl)-2-hydroxyacetamido)-2-methylphenyl)-N-isopropylnicotinamide]",XRPD result after slurry,"[1]; 2-Butanone, 50° C., 2 days",Mono-fumarate Form A
same,XRPD result after slurry,"[1]; 2-Butanone, room temperature, 5 days",Mono-fumarate Form A
same,XRPD result after slurry,"[1]; Acetone, 50° C., 2 days",Mono-fumarate Form A
same,XRPD result after slurry,"[1]; Acetone, room temperature, 5 days",Mono-fumarate Form A
same,XRPD result after slurry,"[1]; EtOAc, 50° C., 2 days",Low crystallinity
same,XRPD result after slurry,"[1]; EtOAc, room temperature, 5 days",Low crystallinity
same,XRPD result after slurry,"[1]; EtOH, room temperature, 5 days",Solid
same,XRPD result after slurry,"[1]; Heptane, 50° C., 2 days",Mono-fumarate Form A
same,XRPD result after slurry,"[1]; Heptane, room temperature, 5 days",Mono-fumarate Form A
same,XRPD result after slurry,"[1]; IPA, 50° C., 2 days",Hemi-fumarate Form A
same,XRPD result after slurry,"[1]; IPA, room temperature, 5 days",Hemi-fumarate Form A
same,XRPD result after slurry,"[1]; IPAc, 50° C., 2 days",Hemi-fumarate Form A
same,XRPD result after slurry,"[1]; IPAc, room temperature, 5 days",Low crystallinity
same,XRPD result after slurry,"[1]; Isobutanol, 50° C., 2 days",Hemi-fumarate Form A
same,XRPD result after slurry,"[1]; Isobutanol, room temperature, 5 days",Hemi-fumarate Form A
same,XRPD result after slurry,"[1]; MTBE, 50° C., 2 days",Hemi-fumarate Form A
same,XRPD result after slurry,"[1]; MTBE, room temperature, 5 days",Low crystallinity
same,XRPD result after slurry,"[1]; MeCN, room temperature, 5 days",Low crystallinity
same,XRPD result after slurry,"[1]; Toluene, 50° C., 2 days",Hemi-fumarate Form A
same,XRPD result after slurry,"[1]; Toluene, room temperature, 5 days",Low crystallinity
same,XRPD result after slurry,"[1]; Water, 50° C., 2 days",Alternative pattern
same,XRPD result after slurry,"[1]; Water, room temperature, 5 days",Alternative pattern
same,solubility,"[2]; EtOAc, organic solvent or mixture, thermodynamic from solid, EtOAc, read-out: Solubility",> 3 mg/mL
same,solubility,"[2]; EtOH, organic solvent or mixture, thermodynamic from solid, EtOH, read-out: Solubility",> 22.5 mg/mL
same,solubility,"[2]; IPA, organic solvent or mixture, thermodynamic from solid, IPA, read-out: Solubility",> 23.4 mg/mL
same,solubility,"[2]; IPAc, organic solvent or mixture, thermodynamic from solid, IPAc, read-out: Solubility",> 2.1 mg/mL
same,solubility,"[2]; MEK, organic solvent or mixture, thermodynamic from solid, MEK, read-out: Solubility",> 11.7 mg/mL
same,solubility,"[2]; MTBE, organic solvent or mixture, thermodynamic from solid, MTBE, read-out: Solubility",> 4.2 mg/mL
same,solubility,"[2]; MeCN, organic solvent or mixture, thermodynamic from solid, MeCN, read-out: Solubility",> 2.2 mg/mL
same,solubility,[2]; MeOH,>53.2 mg/mL
same,solubility,"[2]; MeOH, organic solvent or mixture, thermodynamic from solid, MeOH, read-out: Solubility",> 50 mg/mL
same,solubility,[2]; THF,>52.6 mg/mL
same,solubility,"[2]; THF, organic solvent or mixture, thermodynamic from solid, THF, read-out: Solubility",> 50 mg/mL
same,solubility,"[2]; acetone, organic solvent or mixture, thermodynamic from solid, Acetone, read-out: Solubility",> 13.4 mg/mL
same,solubility,"[2]; heptane, organic solvent or mixture, thermodynamic from solid, Heptane, read-out: Solubility",< 1 mg/mL
same,solubility,"[2]; isobutanol, organic solvent or mixture, thermodynamic from solid, Isobutanol, read-out: Solubility",> 11.1 mg/mL
same,solubility,"[2]; toluene, organic solvent or mixture, thermodynamic from solid, Toluene, read-out: Solubility",< 1.1 mg/mL
same,solubility,"[2]; water, thermodynamic from solid, Water, read-out: Solubility",< 1.1 mg/mL
"Cc1cc(NC(=O)[C@H](O)c2cc(F)cc(F)c2)ccc1-c1cnc(N)c(C(=O)NC(C)C)c1 [Form B, (R)-2-amino-5-(4-(2-(3,5-difluorophenyl)-2-hydroxyacetamido)-2-methylphenyl)-N-isopropylnicotinamide]",Result (VT-XRPD),"[3]; 30° C., 1st scan in table order",Form B
same,Result (VT-XRPD),"[3]; 30° C., 4th scan in table order",Material F
same,Result (VT-XRPD),"[3]; 30° C., 8th scan in table order",Form A
same,Result (VT-XRPD),"[3]; 75° C., 2nd scan in table order",Form B
same,Result (VT-XRPD),"[3]; 75° C., 5th scan in table order",Material F
same,Result (VT-XRPD),"[3]; 100° C., 3rd scan in table order",Material F
same,Result (VT-XRPD),"[3]; 100° C., 6th scan in table order",Material F
same,Result (VT-XRPD),"[3]; 175° C., 7th scan in table order",Form A^1
same,Relative stability of Form B vs Material F (enantiotropes),[3]; below the transition temperature,"more stable, relative to Material F, below the transition temperature"
"Cc1cc(NC(=O)[C@H](O)c2cc(F)cc(F)c2)ccc1-c1cnc(N)c(C(=O)NC(C)C)c1 [Form C, (R)-2-amino-5-(4-(2-(3,5-difluorophenyl)-2-hydroxyacetamido)-2-methylphenyl)-N-isopropylnicotinamide]",Result (XRPD),"[4]; Acetone, ambient conditions, stored for 13 days",Form B (FIG. 38B)
same,Result (XRPD),"[4]; Acetone, initial sample",Form B + Form C
same,Result (XRPD),"[4]; MeCN, ambient conditions, stored for 25 days",Form B (FIG. 38D)
same,Result (XRPD),"[4]; MeCN, initial sample",Form C (FIG. 38C)
same,Result (XRPD),"[4]; MeCN/water, ambient conditions, stored for 9 days",Form C + Form B
same,Result (XRPD),"[4]; MeCN/water, initial sample",Form C (FIG. 38E)
same,Physical stability of Form C (XRPD),"[4]; ambient conditions, irrespective of solvent system used to prepare Form C",desolvates and either partially converts or fully converts to Form B within days
same,Solid form (XRPD) after storage,"[4]; sample obtained from acetonitrile and water, ambient conditions, 9 days",mixture of Form B and Form C
same,Solid form (XRPD) after storage,"[4]; sample obtained from acetonitrile, ambient conditions, 25 days",Form B

# Source: patent US20260265199A1, “CRYSTALLINE FORMS OF (R)-2-AMINO-5-(4-(2-(3,5-DIFLUOROPHENYL)-2-HYDROXYACETAMIDO)-2-METHYLPHENYL)-N-ISOPROPYLNICOTINAMIDE AND METHODS FOR USING THE SAME” (HIBERCELL, INC., priority 2023, published 2026)
